Earlier results in patent publication US6420378B1, “Inhibition of abnormal cell proliferation with camptothecin and combinations including the same” (priority 1999, dated 2002).

Tests used:
[1] = test system: human colon cancer xenografts; conditions: mouse, in vivo
[2] = clinical trials, administered intravenously
tumorigenic human cells = conditions: in vitro
[3] = test system: nontumorigenic human cells; conditions: in vitro

## CC[C@@]1(O)C(=O)OCc2c1cc1n(c2=O)Cc2cc3c(N)cccc3nc2-1 [9AC, 9-Amino-20(S)-Camptothecin]
[1]
  anticancer activity against human colon cancer xenografts: high anticancer activity

## CC[C@@]1(O)C(=O)OCc2c1cc1n(c2=O)Cc2cc3c([N+](=O)[O-])cccc3nc2-1 [9NC, 9-nitrocamptothecin]
Human tumor xenografts; immunodeficient nude mice
  growth of human tumor xenografts: inhibited the growth
Human tumor xenografts; mouse, in vivo
  activity against human tumor xenograft models: high activity
Human tumor xenografts; nude mice
  regression of human tumors established as xenografts: induced regression

## CC[C@@]1(O)C(=O)OCc2c1cc1n(c2=O)Cc2cc3cc4c(cc3nc2-1)OCO4 [10,11 MD, 10,11-Methylendioxy-20(S)-Camptothecin]
[1]
  anticancer activity against human colon cancer xenografts: high anticancer activity

## CC[C@@](O)(C(=O)[O-])c1cc2n(c(=O)c1CO)Cc1cc3ccccc3nc1-2.[Na+] [20(S)-camptothecin Na+]
[2]
  potency: low potency
  toxicity: high toxicity

## CC[C@@]1(O)C(=O)OCc2c1cc1n(c2=O)Cc2cc3ccccc3nc2-1 [20(S)-camptothecin]
Tumorigenic human cells
  effect on tumorigenic cells: cytotoxic
[3]
  effect on nontumorigenic cells: cytostatic
